Reference: patent US12486274B2, “Substituted pyrazolo-pyrimidines and uses thereof” (Verge Analytics, Inc., priority 2020, dated 2025)
Structures can show the parent of a compound that is named as a salt.

Biological target: Full length human recombinant PIKFYVE (Homo sapiens (Human), UniProt Q9Y2I7)
Assay: Inhibition of PIKfyve (microfluidic electrophoresis kinase assay)
Format: biochemical
Settings: 2 nM enzyme, PI3P/PS substrate, 3 h at room temperature, 12 concentrations
Experimental: Full length human recombinant PIKFYVE expressed in baculovirus expression system as N-terminal GST-fusion protein (265 kDa) was obtained from Carna Biosciences (Kobe, Japan). The kinase substrate was prepared by mixing and sonicating fluorescently-labeled phosphatidylinositol 3-phosphate (PI3P) with phospho-L-serine (PS) at a 1:10 ratio in 50 mM HEPES buffer pH7.5.
The kinase reactions were assembled in 384-well plates (Greiner) in a total volume of […] as follows. Kinase protein was pre-diluted in an assay buffer comprising 25 mM HEPES, pH 7.5, 1 mM DTT, 2.5 mM MgCl2, and 2.5 mM MnCl2, and 0.005% Triton X-100, and dispensed into a 384-well plate (10 μL per well). Test compounds were serially pre-diluted in DMSO and added to the protein samples by acoustic dispensing (Labcyte Echo). The concentration of DMSO was equalized to 1% in all samples. All test compounds were tested at 12 concentrations. Apilimod was used as a reference compound and was tested in identical manner in each assay plate. Control samples (0%-inhibition, in the absence of inhibitor, DMSO only) and 100%-inhibition (in the absence of enzyme) were assembled in replicates of four and were used to calculate %-inhibition in the presence of compounds. The reactions were initiated by addition of 10 μL of 2× PI3P/PS substrate supplemented with ATP. The final concentration of enzyme was 2 nM, the final concentration of ATP was 10 mM, and the final concentration of PI3P/PS substrate was 1 μM (PI3P). The kinase reactions were allowed to proceed for 3 h at room temperature. Following incubation, the reactions were quenched by addition of […] of termination buffer (100 mM HEPES, pH 7.5, 0.01% Triton X-100, 20 mM EDTA). Terminated plates were analyzed on a microfluidic electrophoresis instrument (Caliper LabChip® 3000, Caliper Life Sciences/Perkin Elmer). The change in the relative fluorescence intensity of the PI (3) P substrate and PI (3,5) P product peaks was measured. The activity in each test sample was determined as the product to sum ratio (PSR): P/(S+P), where P is the peak height of the product, and S is the peak height of the substrate. Percent inhibition (Pinh) was determined using the following equation: Pinh=(PSR0% inh−PSRcompound)/(PSR0% inh−PSR100% inh)*100 in which PSRcompound is the product/sum ratio in the presence of compound, PSR0% inh is the product/sum ratio in the absence of compound, and the PSR100% inh is the product/sum ratio in the absence of the enzyme.

Full length human recombinant PIKFYVE, sequence (Q9Y2I7 whole entry): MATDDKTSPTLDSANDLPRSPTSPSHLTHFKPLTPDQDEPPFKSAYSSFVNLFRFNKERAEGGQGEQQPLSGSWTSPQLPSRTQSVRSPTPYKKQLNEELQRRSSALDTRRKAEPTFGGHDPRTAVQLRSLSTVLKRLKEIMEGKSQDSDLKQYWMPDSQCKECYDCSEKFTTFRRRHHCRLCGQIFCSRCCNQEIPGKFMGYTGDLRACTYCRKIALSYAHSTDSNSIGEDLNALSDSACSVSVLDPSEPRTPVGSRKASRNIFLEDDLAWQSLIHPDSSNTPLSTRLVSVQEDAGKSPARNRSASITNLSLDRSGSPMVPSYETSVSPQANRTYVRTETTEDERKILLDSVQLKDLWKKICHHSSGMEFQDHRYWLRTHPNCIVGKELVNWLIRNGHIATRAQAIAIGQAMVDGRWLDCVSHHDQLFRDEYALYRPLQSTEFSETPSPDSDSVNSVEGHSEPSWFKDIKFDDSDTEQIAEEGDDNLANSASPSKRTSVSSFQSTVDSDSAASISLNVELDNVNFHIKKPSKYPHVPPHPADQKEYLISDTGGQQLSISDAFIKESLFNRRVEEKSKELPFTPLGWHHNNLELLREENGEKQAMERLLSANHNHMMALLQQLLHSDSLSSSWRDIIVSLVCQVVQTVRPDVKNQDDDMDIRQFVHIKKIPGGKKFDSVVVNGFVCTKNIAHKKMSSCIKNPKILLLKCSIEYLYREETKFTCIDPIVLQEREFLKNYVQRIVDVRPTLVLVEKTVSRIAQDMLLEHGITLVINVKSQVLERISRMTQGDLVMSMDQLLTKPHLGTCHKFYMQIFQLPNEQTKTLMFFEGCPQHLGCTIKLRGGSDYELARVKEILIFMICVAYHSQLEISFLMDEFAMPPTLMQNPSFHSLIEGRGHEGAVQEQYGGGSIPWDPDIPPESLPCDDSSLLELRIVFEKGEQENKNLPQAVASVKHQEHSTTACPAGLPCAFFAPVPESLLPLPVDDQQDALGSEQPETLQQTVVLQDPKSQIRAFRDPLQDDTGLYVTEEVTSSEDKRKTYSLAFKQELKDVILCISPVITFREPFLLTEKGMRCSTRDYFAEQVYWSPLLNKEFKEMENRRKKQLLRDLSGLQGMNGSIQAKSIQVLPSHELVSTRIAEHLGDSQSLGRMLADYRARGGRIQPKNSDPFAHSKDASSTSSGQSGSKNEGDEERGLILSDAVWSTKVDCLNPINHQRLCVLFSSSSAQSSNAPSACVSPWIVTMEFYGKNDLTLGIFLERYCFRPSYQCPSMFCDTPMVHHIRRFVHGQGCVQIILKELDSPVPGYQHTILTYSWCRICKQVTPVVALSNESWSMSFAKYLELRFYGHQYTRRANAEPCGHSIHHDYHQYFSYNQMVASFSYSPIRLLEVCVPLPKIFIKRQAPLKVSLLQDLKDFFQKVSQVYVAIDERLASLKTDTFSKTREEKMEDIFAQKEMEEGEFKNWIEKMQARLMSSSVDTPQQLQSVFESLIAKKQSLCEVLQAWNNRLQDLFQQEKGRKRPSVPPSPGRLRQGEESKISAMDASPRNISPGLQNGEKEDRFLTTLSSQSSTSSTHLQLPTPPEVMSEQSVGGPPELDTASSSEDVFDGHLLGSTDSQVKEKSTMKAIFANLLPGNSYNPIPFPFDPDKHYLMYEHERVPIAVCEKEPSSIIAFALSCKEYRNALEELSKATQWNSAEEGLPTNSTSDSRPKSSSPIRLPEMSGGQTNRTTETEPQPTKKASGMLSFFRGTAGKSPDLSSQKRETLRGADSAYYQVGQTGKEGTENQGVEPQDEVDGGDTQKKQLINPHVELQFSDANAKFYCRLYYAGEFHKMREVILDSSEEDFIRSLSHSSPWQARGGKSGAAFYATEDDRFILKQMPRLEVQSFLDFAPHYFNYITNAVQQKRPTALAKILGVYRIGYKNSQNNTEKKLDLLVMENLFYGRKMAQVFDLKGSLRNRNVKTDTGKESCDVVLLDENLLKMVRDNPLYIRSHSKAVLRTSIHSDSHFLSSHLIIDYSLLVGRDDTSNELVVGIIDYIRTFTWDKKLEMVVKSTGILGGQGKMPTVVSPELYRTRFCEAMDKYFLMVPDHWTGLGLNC

For `Cc1cccc(-c2ccn(-c3cc(N4CCOCC4)n4nc(-c5cc(C)nn5CCN(C)C)cc4n3)n2)c1` [Compound 83, N,N-dimethyl-2-[3-methyl-5-[7-morpholino-5-[3-(m-tolyl)pyrazol-1-yl]pyrazolo[1,5-a]pyrimidin-2-yl]pyrazol-1-yl]ethanamine], the IC50 was 0.0226 µM.
Work on `Cc1cccc(-c2ccn(-c3cc(N4CCOCC4)n4nc(C(=O)NC(C)C)cc4n3)n2)c1` [Example 38, N-isopropyl-7-morpholino-5-(3-(m-tolyl)-1H-pyrazol-1-yl)pyrazolo[1,5-a]pyrimidine-2-carboxamide] yielded an IC50 of 0.0257 µM.
For `Nc1ncc(-c2cc3nc(-n4ccc(-c5ccccc5)n4)cc(N4CCOCC4)n3n2)cn1` [Compound 71, 5-[7-morpholino-5-(3-phenylpyrazol-1-yl)pyrazolo[1,5-a]pyrimidin-2-yl]pyrimidin-2-amine], the IC50 was 0.143 µM.
For `Cc1cccc(-c2cc(Nc3cc(N4CCOCC4)n4nc(-c5ccncc5)cc4n3)[nH]n2)c1` [Example 4, 7-morpholino-N-[3-(m-tolyl)-1H-pyrazol-5-yl]-2-(4-pyridyl)pyrazolo[1,5-a]pyrimidin-5-amine, Hydrogen Chloride Salt], the IC50 was 0.55 µM.
`Cc1cc(-c2cc3nc(-n4ccc(-c5ccccn5)n4)cc(N4CCOCC4)n3n2)nn1CCN(C)C` [Compound 92, N,N-dimethyl-2-[5-methyl-3-[7-morpholino-5-[3-(2-pyridyl)pyrazol-1-yl]pyrazolo[1,5-a]pyrimidin-2-yl]pyrazol-1-yl]ethanamine] showed an IC50 of 5.24 µM.
In the case of `Cc1cccc(-c2ccn(-c3cc(N4CCOCC4)n4nc(C(=O)NC5CCN(C)CC5)cc4n3)n2)c1` [Compound 54, N-(1-methyl-4-piperidyl)-7-morpholino-5-[3-(m-tolyl)pyrazol-1-yl]pyrazolo[1,5-a]pyrimidine-2-carboxamide], the IC50 is reported as 0.126 µM.
`Cc1cccc(-c2ccn(-c3cc(N4CCOCC4)n4nc(-c5cc(C)nn5C)cc4n3)n2)c1` [Compound 84, 4-[2-(2,5-dimethylpyrazol-3-yl)-5-[3-(m-tolyl)pyrazol-1-yl]pyrazolo[1,5-a]pyrimidin-7-yl]morpholine] showed an IC50 of 0.0026 µM.
In the case of `Cc1cc(-c2ccn(-c3cc(N4CCOCC4)n4nc(-c5cc(C)n(CCN(C)C)n5)cc4n3)n2)ccn1` [Compound 96, N,N-dimethyl-2-[5-methyl-3-[5-[3-(2-methyl-4-pyridyl)pyrazol-1-yl]-7-morpholino-pyrazolo[1,5-a]pyrimidin-2-yl]pyrazol-1-yl]ethanamine], the IC50 is reported as > 10 µM.
Compound `Cc1cccc(-c2ccn(-c3cc(N4CCOCC4)n4nc(-c5cc(C)n(CCN(C)C)n5)cc4n3)n2)c1` [Compound 91, N,N-dimethyl-2-[5-methyl-3-[7-morpholino-5-[3-(m-tolyl)pyrazol-1-yl]pyrazolo[1,5-a]pyrimidin-2-yl]pyrazol-1-yl]ethanamine] has an IC50 of 0.0094 µM.
In the case of `Cc1cc(-c2cc3nc(-n4ccc(-c5ccccc5)n4)cc(N4CCOCC4)n3n2)nn1CCN(C)C` [Compound 99, N,N-dimethyl-2-[5-methyl-3-[7-morpholino-5-(3-phenylpyrazol-1-yl)pyrazolo[1,5-a]pyrimidin-2-yl]pyrazol-1-yl]ethanamine], the IC50 is reported as 0.127 µM.
For `Cc1cccc(-c2ccn(-c3cc(N4CCOCC4)n4nc(C(=O)N5CCC56COC6)cc4n3)n2)c1` [Example 46, (7-morpholino-5-(3-(m-tolyl)-1H-pyrazol-1-yl)pyrazolo[1,5-a]pyrimidin-2-yl) (6-oxa-1-azaspiro[3.3]heptan-1-yl)methanone], the IC50 was 0.113 µM.
With `Cc1cc(-c2ccn(-c3cc(N4CCOCC4)n4nc(-c5cccnc5)cc4n3)n2)ccn1` [Compound 103, 4-[5-[3-(2-methyl-4-pyridyl)pyrazol-1-yl]-2-(3-pyridyl)pyrazolo[1,5-a]pyrimidin-7-yl]morpholine] the IC50 was > 10 µM.
With `CON(C)C(=O)c1cc2nc(-n3ccc(-c4cccc(C)c4)n3)cc(N3CCOCC3)n2n1` [Example 33, N-methoxy-N-methyl-7-morpholino-5-(3-(m-tolyl)-1H-pyrazol-1-yl)pyrazolo[1,5-a]pyrimidine-2-carboxamide] the IC50 was 0.113 µM.
`CCN(C)C(=O)c1cc2nc(-n3ccc(-c4cccc(C)c4)n3)cc(N3CCOCC3)n2n1` [Example 25, N-ethyl-N-methyl-7-morpholino-5-(3-(m-tolyl)-1H-pyrazol-1-yl)pyrazolo[1,5-a]pyrimidine-2-carboxamide] showed an IC50 of 0.437 µM.
In the case of `COCC(COC)NC(=O)c1cc2nc(-n3ccc(-c4cccc(C)c4)n3)cc(N3CCOCC3)n2n1` [Example 39, N-(1,3-dimethoxypropan-2-yl)-7-morpholino-5-(3-(m-tolyl)-1H-pyrazol-1-yl)pyrazolo[1,5-a]pyrimidine-2-carboxamide], the IC50 is reported as 0.0996 µM.
In the case of `c1cc(-c2ccn(-c3cc(N4CCOCC4)n4nc(-c5ccncc5)cc4n3)n2)ccn1` [Example 15, 4-[2-(4-pyridyl)-5-[3-(4-pyridyl)pyrazol-1-yl]pyrazolo[1,5-a]pyrimidin-7-yl]morpholine], the IC50 is reported as 1.1 µM.
Compound `Cc1cc(-c2cc3nc(-n4ccc(-c5cccc(Cl)c5)n4)cc(N4CCOCC4)n3n2)nn1CCN(C)C` [Compound 97, 2-[3-[5-[3-(3-chlorophenyl)pyrazol-1-yl]-7-morpholino-pyrazolo[1,5-a]pyrimidin-2-yl]-5-methyl-pyrazol-1-yl]-N,N-dimethyl-ethanamine] has an IC50 of 0.126 µM.
`c1ccc(-c2ccn(-c3cc(N4CCOCC4)n4nc(-c5cnccn5)cc4n3)n2)cc1` [Compound 82, 4-[5-(3-phenylpyrazol-1-yl)-2-pyrazin-2-yl-pyrazolo[1,5-a]pyrimidin-7-yl]morpholine] showed an IC50 of 0.169 µM.
In the case of `Cc1cccc(-c2cnn(-c3cc(N4CCOCC4)n4nc(-c5ccncc5)cc4n3)c2)c1` [Example 10, 4-[5-[4-(m-tolyl)pyrazol-1-yl]-2-(4-pyridyl)pyrazolo[1,5-a]pyrimidin-7-yl]morpholine], the IC50 is reported as > 10 µM.
`c1ccc(-c2ccn(-c3cc(N4CCOCC4)n4nc(-c5ccncc5)cc4n3)n2)cc1` [Example 13, 4-[5-(3-phenylpyrazol-1-yl)-2-(4-pyridyl)pyrazolo[1,5-a]pyrimidin-7-yl]morpholine] showed an IC50 of 0.207 µM.
In the case of `c1ccc(-c2cc(Nc3cc(N4CCOCC4)n4nc(-c5ccncc5)cc4n3)n[nH]2)cc1` [Example 2, 7-morpholino-N-(5-phenyl-1H-pyrazol-3-yl)-2-(4-pyridyl)pyrazolo[1,5-a]pyrimidin-5-amine], the IC50 is reported as 0.967 µM.
Compound `Nc1ncccc1-c1cc2nc(-n3ccc(-c4ccccc4)n3)cc(N3CCOCC3)n2n1` [Compound 70, 3-[7-morpholino-5-(3-phenylpyrazol-1-yl)pyrazolo[1,5-a]pyrimidin-2-yl]pyridin-2-amine] has an IC50 of 0.378 µM.
For `Cc1ccn(-c2cc(N3CCOCC3)n3nc(-c4ccncc4)cc3n2)n1` [Example 16, 4-[5-(3-methylpyrazol-1-yl)-2-(4-pyridyl)pyrazolo[1,5-a]pyrimidin-7-yl]morpholine], the IC50 was > 10 µM.
Work on `c1ccc(-c2ccn(-c3cc(N4CCOCC4)n4nc(-c5ccncn5)cc4n3)n2)cc1` [Compound 68, 4-[5-(3-phenylpyrazol-1-yl)-2-pyrimidin-4-yl-pyrazolo[1,5-a]pyrimidin-7-yl]morpholine] yielded an IC50 of 1.66 µM.
`Cc1cccc(-c2ccn(-c3cc(N4CCOCC4)n4nc(-c5cc(C)no5)cc4n3)n2)c1` [Compound 110, 4-[2-(3-methylisoxazol-5-yl)-5-[3-(m-tolyl)pyrazol-1-yl]pyrazolo[1,5-a]pyrimidin-7-yl]morpholine] gave an IC50 of 0.0022 µM.
`Cc1ccnc(-c2ccn(-c3cc(N4CCOCC4)n4nc(-c5cc(C)n(CCN(C)C)n5)cc4n3)n2)c1` [Compound 95, N,N-dimethyl-2-[5-methyl-3-[5-[3-(4-methyl-2-pyridyl)pyrazol-1-yl]-7-morpholino-pyrazolo[1,5-a]pyrimidin-2-yl]pyrazol-1-yl]ethanamine] gave an IC50 of 0.35 µM.
`Cc1cccc(-c2ccn(-c3cc(N4CCOCC4)n4nc(C(=O)N[C@H]5CCN(C)C5)cc4n3)n2)c1` [Compound 48, N-[(3S)-1-methylpyrrolidin-3-yl]-7-morpholino-5-[3-(m-tolyl)pyrazol-1-yl]pyrazolo[1,5-a]pyrimidine-2-carboxamide] gave an IC50 of 0.0413 µM.
Work on `Cc1cc(-c2cc3nc(-n4ccc(-c5ccccc5)n4)cc(N4CCOCC4)n3n2)nn1C` [Compound 86, 4-[2-(1,5-dimethylpyrazol-3-yl)-5-(3-phenylpyrazol-1-yl)pyrazolo[1,5-a]pyrimidin-7-yl]morpholine] yielded an IC50 of 0.0322 µM.
`COC(=O)NCc1cc2nc(-n3ccc(-c4ccccc4)n3)cc(N3CCOCC3)n2n1` [Compound 89, methyl N-[[7-morpholino-5-(3-phenylpyrazol-1-yl)pyrazolo[1,5-a]pyrimidin-2-yl]methyl]carbamate] was tested, and the IC50 was 1.4 µM.
